Laboratory results: PMC4604124, “In Vitro Characterization of the Pharmacological Properties of the Anti-Cancer Chelator, Bp4eT, and Its Phase I Metabolites” (PLoS ONE, 2015)
Several values for one entry are separate records, joined by “and”; a condition that tells them apart may be missing. Equal values may be shown once. Read-outs that look alike come from different tables or passages of the source.

Columns and labels:
[1] = MTT cytotoxicity assay, 3T3 cells; format: cell-based, mouse; conditions: mouse, 3T3 mouse embryo fibroblasts, 3T3, 10 000 b/j; for viability at 72 h, 1 μM: koncentrace 1 μM; for viability at 72 h, 3 μM: koncentrace 3 μM; for viability at 72 h, 10 μM: koncentrace 10 μM; for viability at 72 h, 30 μM: koncentrace 30 μM; for viability at 72 h, 100 μM: koncentrace 100 μM; for viability at 72 h, 300 μM: koncentrace 300 μM; for viability at 72 h, 1000 μM: koncentrace 1000 μM
Summary of the method: (§1)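 Non-cancerous 3T3 mouse embryo fibroblasts were plated at 10,000 cells/well in 96-well plates and cultured for 24 h/37°C. The medium was then replaced with serum- and pyruvate-free DMEM for a further 24 h/37°C. Cells were exposed to agents for 72 h/37°C with 0.1% DMSO present, and viability was measured by MTT.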

[2] = test system: 3T3 mouse embryo fibroblasts; assay: MTT cytotoxicity assay, 3T3 cells; format: cell-based; conditions: for MTT viability (0 = 100): 3T3, 10 000 b/j, individual experiments
Summary of the method: as §1

caspases 3/7 = assay: Caspase activity, luminescent kit, caspases 3/7; format: cell-based, human; conditions: for kaspáza (3) a 7, raw signal / kaspáza (3) a 7, signal / viabilita: individual experiments by date; for kaspáza (3) a 7, raw signal, průměry / kaspáza (3) a 7, % kontroly / kaspáza (3) a 7, signal / viabilita, průměry: mean; for kaspáza (3) a 7, % kontroly / kaspáza (3) a 7, signal / viabilita / kaspáza (3) a 7, signal / viabilita, průměry: normalised to viability
H9c2 cardiomyoblasts = assay: MTT cytotoxicity assay, H9c2 cells; format: cell-based, rat; conditions: for IC50: MTT, read-out: IC50
Summary of the method: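 Cells seeded 24 h at 37 °C (MCF-7 5,000, HCT116 and A549 2,000, H9c2 10,000 per well; H9c2 then 24 h in serum- and pyruvate-free DMEM), then exposed to Bp4eT or metabolites 72 h at 37 °C with 0.1% DMSO. MTT read at 570 nm minus 690 nm; viability as % of untreated control, IC50 derived.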

MCF-7 cells = assay: Cellular 59Fe uptake from 59Fe2-transferrin; format: cell-based, human; design: key to Uptake 59Fe, Ave / Uptake 59Fe: % of internalized 59Fe in untreated control cells; conditions: Control Ave = 100
Summary of the method: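 Confluent MCF-7 cells were incubated 3 h at 37°C with 0.75 μM ⁵⁹Fe₂-transferrin (500 pCi/pmol Fe) plus chelator at 25 μM. Membrane-bound ⁵⁹Fe was released with Pronase (1 mg/mL, 30 min, 4°C). Pronase-insensitive internalized ⁵⁹Fe was expressed as % of untreated control.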

[3] = individual experiments, read-out: MTT viability (0 = 100)
[4] = mean, read-out: MTT viability (0 = 100), průměr

Compound `CCNC(=O)NN=C(c1ccccc1)c1ccccn1` [E-Bp4eS, 2-benzoylpyridine 4-ethylsemicarbazone] has a viability at 72 h, 1 μM [1, 3] of 91%, a viability at 72 h, 1 μM [1, 4] of 98% and a viability at 72 h, 3 μM [1, 3] of 96.2%. The viability at 72 h, 3 μM [1, 4] was 94.8%, the viability at 72 h, 10 μM [1, 3] was 91.6% and the viability at 72 h, 10 μM [1, 4] was 92.9%. It also gave a viability at 72 h, 30 μM [1, 3] of 86.3%, a viability at 72 h, 30 μM [1, 4] of 90.2% and a viability at 72 h, 100 μM [1, 3] of 87.1%. The viability at 72 h, 100 μM [1, 4] was 83.9%, the viability at 72 h, 300 μM [1, 3] was 85.3% and the viability at 72 h, 300 μM [1, 4] was 81.5%. For the same compound, the viability at 72 h, 1000 μM [1, 3] was 74.1%, the viability at 72 h, 1000 μM [1, 4] was 66.7% and the “MTT viability (0 = 100)” value ([2]; koncentrace 1 μM) was 96.8721 and 104.341 and 100.156 and 97.6643. For the same compound, the “MTT viability (0 = 100)” value ([2]; koncentrace 3 μM) was 91.697 and 99.6923 and 92.7572 and 93.5961, the “MTT viability (0 = 100)” value ([2]; koncentrace 10 μM) was 87.504 and 95.4305 and 94.9836 and 95.1509 and the “MTT viability (0 = 100)” value ([2]; koncentrace 30 μM) was 95.2772 and 94.6873 and 87.6265 and 86.7904. For the same compound, the “MTT viability (0 = 100)” value ([2]; koncentrace 100 μM) was 89.4336 and 75.046 and 83.8477, the “MTT viability (0 = 100)” value ([2]; koncentrace 300 μM) was 87.9502 and 69.8243 and 82.8158 and the “MTT viability (0 = 100)” value ([2]; koncentrace 1000 μM) was 61.3011 and 59.7855 and 71.6828. For the same compound, the IC50 ([2]; Mus musculus, Fibroblast, 72 h, 3T3, 72 h/37°C, MTT, mean ± SD, n ≥ 4, read-out: IC50) was greater than 1 mM, the “kaspáza (3) a 7, raw signal” value (caspases 3/7; 3 hodiny) was 2046.5 and 1555.5 and 1698 and 1596 and the “kaspáza (3) a 7, raw signal, průměry” value (caspases 3/7; 3 hodiny) was 1724. The “kaspáza (3) a 7, % kontroly” value (caspases 3/7; 3 hodiny) was 106.30 % kontroly, the “kaspáza (3) a 7, signal / viabilita” value (caspases 3/7; 3 hodiny) was 20.8429 and 15.8422 and 17.2935 and 16.2547 and the “kaspáza (3) a 7, signal / viabilita, průměry” value (caspases 3/7; 3 hodiny) was 17.5583. The “kaspáza (3) a 7, raw signal” value (caspases 3/7; 24 hodin) was 2362.5 and 2475 and 2765.5 and 2572, the “kaspáza (3) a 7, raw signal, průměry” value (caspases 3/7; 24 hodin) was 2543.75 and the “kaspáza (3) a 7, % kontroly” value (caspases 3/7; 24 hodin) was 112.45 % kontroly. For the same compound, the “kaspáza (3) a 7, signal / viabilita” value (caspases 3/7; 24 hodin) was 23.7515 and 24.8825 and 27.8031 and 25.8577, the “kaspáza (3) a 7, signal / viabilita, průměry” value (caspases 3/7; 24 hodin) was 25.5737 and the “kaspáza (3) a 7, raw signal” value (caspases 3/7; 72 hodin) was 7302.5 and 8023 and 7227 and 8569. The “kaspáza (3) a 7, raw signal, průměry” value (caspases 3/7; 72 hodin) was 7780.38, the “kaspáza (3) a 7, % kontroly” value (caspases 3/7; 72 hodin) was 107.49 % kontroly and the “kaspáza (3) a 7, signal / viabilita” value (caspases 3/7; 72 hodin) was 74.6601 and 82.0264 and 73.8882 and 87.6086. For the same compound, the “kaspáza (3) a 7, signal / viabilita, průměry” value (caspases 3/7; 72 hodin) was 79.5458, the IC50 (H9c2 cardiomyoblasts; H9c2, 72 h/37°C, mean ± SD, n ≥ 4) was 884 ± 279 µM and the “MTT, relative to control (0 = 100)” value (H9c2 cardiomyoblasts; H9c2, 10 000 b/j, 1 μM, průměr (mean), sheet E-Bp4eS) was 94.39. The “MTT, relative to control (0 = 100)” value (H9c2 cardiomyoblasts; H9c2, 10 000 b/j, 1 μM, single experiment (date), sheet E-Bp4eS) was 95.7668 and 93.0745 and 94.7872 and 93.9178, the “MTT, relative to control (0 = 100)” value (H9c2 cardiomyoblasts; H9c2, 10 000 b/j, 3 μM, průměr (mean), sheet E-Bp4eS) was 94.04 and the “MTT, relative to control (0 = 100)” value (H9c2 cardiomyoblasts; H9c2, 10 000 b/j, 3 μM, single experiment (date), sheet E-Bp4eS) was 97.8721 and 90.4272 and 95.5074 and 92.3686. For the same compound, the “MTT, relative to control (0 = 100)” value (H9c2 cardiomyoblasts; H9c2, 10 000 b/j, 10 μM, průměr (mean), sheet E-Bp4eS) was 92.87, the “MTT, relative to control (0 = 100)” value (H9c2 cardiomyoblasts; H9c2, 10 000 b/j, 10 μM, single experiment (date), sheet E-Bp4eS) was 97.5948 and 91.5814 and 93.3122 and 89.0018 and the “MTT, relative to control (0 = 100)” value (H9c2 cardiomyoblasts; H9c2, 10 000 b/j, 30 μM, průměr (mean), sheet E-Bp4eS) was 87.33. The “MTT, relative to control (0 = 100)” value (H9c2 cardiomyoblasts; H9c2, 10 000 b/j, 30 μM, single experiment (date), sheet E-Bp4eS) was 92.2111 and 86.1798 and 89.4636 and 81.4505, the “MTT, relative to control (0 = 100)” value (H9c2 cardiomyoblasts; H9c2, 10 000 b/j, 100 μM, průměr (mean), sheet E-Bp4eS) was 77.15 and the “MTT, relative to control (0 = 100)” value (H9c2 cardiomyoblasts; H9c2, 10 000 b/j, 100 μM, single experiment (date), sheet E-Bp4eS) was 79.5863 and 76.8996 and 78.6318 and 73.5016. For the same compound, the “MTT, relative to control (0 = 100)” value (H9c2 cardiomyoblasts; H9c2, 10 000 b/j, 300 μM, průměr (mean), sheet E-Bp4eS) was 65.67, the “MTT, relative to control (0 = 100)” value (H9c2 cardiomyoblasts; H9c2, 10 000 b/j, 300 μM, single experiment (date), sheet E-Bp4eS) was 61.9338 and 65.3898 and 65.2717 and 70.085 and the “MTT, relative to control (0 = 100)” value (H9c2 cardiomyoblasts; H9c2, 10 000 b/j, 1000 μM, průměr (mean), sheet E-Bp4eS) was 48.11. For the same compound, the “MTT, relative to control (0 = 100)” value (H9c2 cardiomyoblasts; H9c2, 10 000 b/j, 1000 μM, single experiment (date), sheet E-Bp4eS) was 55.0254 and 43.1142 and 38.2886 and 56.005, the IC50 (H9c2 cardiomyoblasts; H9c2, 10 000 b/j, single experiment (date), sheet E-Bp4eS) was 683 µM and 1140 µM and 606 µM and the IC50 (H9c2 cardiomyoblasts; Rattus norvegicus, H9c2, H9c2, 10 000 b/j, průměr (mean), sheet E-Bp4eS) was 884 µM. The IC50 (H9c2 cardiomyoblasts; Rattus norvegicus, H9c2, H9c2, 10 000 b/j, single experiment (date), sheet E-Bp4eS) was 1100 µM, the “Uptake 59Fe, Ave” value (MCF-7 cells; average of all replicates) was 105.146 and the “Uptake 59Fe” value (MCF-7 cells; single replicate (three per date)) was 102.106 and 110.477 and 102.867 and 98.5761 and 110.59 and 101.139 and 107.081 and 112.704 and 100.772.
